Experimental data as given in publication PMC9851200, “Multiparameter phenotypic screening for endogenous TFEB and TFE3 translocation identifies novel chemical series modulating lysosome function” (Autophagy, 2022).

Assays:
Type in all cases: binding
[1] = molecular target: T1, kinases (KINOMEscan panel) (Homo sapiens, UniProt O00444); settings: kinase PLK4; NEW KINOMEscan
T1 sequence (O00444 1-970): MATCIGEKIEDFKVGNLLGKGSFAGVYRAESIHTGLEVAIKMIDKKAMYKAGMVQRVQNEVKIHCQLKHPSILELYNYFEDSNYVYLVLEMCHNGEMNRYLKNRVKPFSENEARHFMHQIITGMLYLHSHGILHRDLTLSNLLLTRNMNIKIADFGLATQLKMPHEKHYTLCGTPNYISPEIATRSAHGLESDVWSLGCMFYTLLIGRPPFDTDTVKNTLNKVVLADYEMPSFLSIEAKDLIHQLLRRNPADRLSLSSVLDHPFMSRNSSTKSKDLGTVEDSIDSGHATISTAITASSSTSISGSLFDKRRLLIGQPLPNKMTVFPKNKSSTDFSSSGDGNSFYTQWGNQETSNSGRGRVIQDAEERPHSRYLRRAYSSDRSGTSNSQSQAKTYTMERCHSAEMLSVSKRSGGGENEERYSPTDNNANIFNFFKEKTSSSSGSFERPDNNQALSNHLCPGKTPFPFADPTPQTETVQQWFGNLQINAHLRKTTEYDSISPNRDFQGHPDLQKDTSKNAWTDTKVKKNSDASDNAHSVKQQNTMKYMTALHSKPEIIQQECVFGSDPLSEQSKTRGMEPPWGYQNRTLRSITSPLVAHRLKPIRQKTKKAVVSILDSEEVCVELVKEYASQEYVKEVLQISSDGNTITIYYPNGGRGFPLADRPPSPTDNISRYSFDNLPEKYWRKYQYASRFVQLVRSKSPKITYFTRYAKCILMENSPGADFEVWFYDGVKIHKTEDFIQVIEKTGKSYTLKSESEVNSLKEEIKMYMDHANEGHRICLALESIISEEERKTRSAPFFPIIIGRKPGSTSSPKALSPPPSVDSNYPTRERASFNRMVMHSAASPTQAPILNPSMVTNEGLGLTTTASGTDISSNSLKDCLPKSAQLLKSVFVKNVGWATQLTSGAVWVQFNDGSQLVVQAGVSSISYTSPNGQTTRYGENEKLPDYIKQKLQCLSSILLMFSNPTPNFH

[2] = molecular target: kinases (KINOMEscan panel) (Homo sapiens, UniProt O60331); settings: PIP5K1C; NEW KINOMEscan
[3] = molecular target: kinases (KINOMEscan panel) (Homo sapiens, UniProt P00519, M351T); settings: kinase ABL1(M351T)-phosphorylated; NEW KINOMEscan
[4] = molecular target: kinases (KINOMEscan panel) (Homo sapiens, UniProt P00533, G719C); settings: kinase EGFR(G719C); NEW KINOMEscan
[5] = molecular target: kinases (KINOMEscan panel) (Homo sapiens, UniProt P00533, T790M); settings: kinase EGFR(T790M); NEW KINOMEscan
[6] = molecular target: kinases (KINOMEscan panel) (Homo sapiens, UniProt P10721, D816V); settings: kinase KIT(D816V); NEW KINOMEscan
[7] = molecular target: kinases (KINOMEscan panel) (Homo sapiens, UniProt P51957); settings: kinase NEK4; NEW KINOMEscan
[8] = molecular target: kinases (KINOMEscan panel) (Homo sapiens, UniProt Q07002); settings: kinase CDK18; NEW KINOMEscan
[9] = molecular target: kinases (KINOMEscan panel) (Homo sapiens, UniProt Q8TDX7); settings: NEK7; NEW KINOMEscan
[10] = molecular target: kinases (KINOMEscan panel) (Homo sapiens, UniProt Q96SB4); settings: kinase SRPK1; NEW KINOMEscan
[11] = molecular target: kinases (KINOMEscan panel) (Homo sapiens, UniProt Q9H4B4); settings: kinase PLK3; NEW KINOMEscan
[12] = molecular target: kinases (KINOMEscan panel) (Homo sapiens, UniProt Q9UM73); settings: kinase ALK; NEW KINOMEscan
[13] = molecular target: kinases (KINOMEscan panel) (Homo sapiens, UniProt Q9UPE1); settings: SRPK3; NEW KINOMEscan
[14] = molecular target: kinases (KINOMEscan panel) (Homo sapiens, UniProt Q9Y4K4); settings: kinase MAP4K5; NEW KINOMEscan

Sequence of kinases (KINOMEscan panel) (Homo sapiens, UniProt O60331) (O60331 whole entry): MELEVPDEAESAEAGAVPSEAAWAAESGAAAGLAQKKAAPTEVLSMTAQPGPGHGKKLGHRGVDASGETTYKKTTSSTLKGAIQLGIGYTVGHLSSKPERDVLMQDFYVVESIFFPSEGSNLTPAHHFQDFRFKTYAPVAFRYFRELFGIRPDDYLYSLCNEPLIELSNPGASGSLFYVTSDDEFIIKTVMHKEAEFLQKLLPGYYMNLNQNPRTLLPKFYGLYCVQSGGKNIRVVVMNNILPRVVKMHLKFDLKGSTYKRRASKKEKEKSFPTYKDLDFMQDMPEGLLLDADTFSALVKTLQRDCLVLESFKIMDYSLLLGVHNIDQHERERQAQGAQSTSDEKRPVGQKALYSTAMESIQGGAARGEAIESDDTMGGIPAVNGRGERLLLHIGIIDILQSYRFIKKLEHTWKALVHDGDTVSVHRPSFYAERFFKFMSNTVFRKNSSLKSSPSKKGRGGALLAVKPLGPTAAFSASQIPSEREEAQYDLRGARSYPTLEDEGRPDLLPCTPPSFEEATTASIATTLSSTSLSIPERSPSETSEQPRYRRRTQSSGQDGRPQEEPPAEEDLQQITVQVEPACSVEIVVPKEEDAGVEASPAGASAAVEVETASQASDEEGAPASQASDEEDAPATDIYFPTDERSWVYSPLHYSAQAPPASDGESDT
Sequence of kinases (KINOMEscan panel) (Homo sapiens, UniProt P10721, D816V) (P10721 26-976 D816V): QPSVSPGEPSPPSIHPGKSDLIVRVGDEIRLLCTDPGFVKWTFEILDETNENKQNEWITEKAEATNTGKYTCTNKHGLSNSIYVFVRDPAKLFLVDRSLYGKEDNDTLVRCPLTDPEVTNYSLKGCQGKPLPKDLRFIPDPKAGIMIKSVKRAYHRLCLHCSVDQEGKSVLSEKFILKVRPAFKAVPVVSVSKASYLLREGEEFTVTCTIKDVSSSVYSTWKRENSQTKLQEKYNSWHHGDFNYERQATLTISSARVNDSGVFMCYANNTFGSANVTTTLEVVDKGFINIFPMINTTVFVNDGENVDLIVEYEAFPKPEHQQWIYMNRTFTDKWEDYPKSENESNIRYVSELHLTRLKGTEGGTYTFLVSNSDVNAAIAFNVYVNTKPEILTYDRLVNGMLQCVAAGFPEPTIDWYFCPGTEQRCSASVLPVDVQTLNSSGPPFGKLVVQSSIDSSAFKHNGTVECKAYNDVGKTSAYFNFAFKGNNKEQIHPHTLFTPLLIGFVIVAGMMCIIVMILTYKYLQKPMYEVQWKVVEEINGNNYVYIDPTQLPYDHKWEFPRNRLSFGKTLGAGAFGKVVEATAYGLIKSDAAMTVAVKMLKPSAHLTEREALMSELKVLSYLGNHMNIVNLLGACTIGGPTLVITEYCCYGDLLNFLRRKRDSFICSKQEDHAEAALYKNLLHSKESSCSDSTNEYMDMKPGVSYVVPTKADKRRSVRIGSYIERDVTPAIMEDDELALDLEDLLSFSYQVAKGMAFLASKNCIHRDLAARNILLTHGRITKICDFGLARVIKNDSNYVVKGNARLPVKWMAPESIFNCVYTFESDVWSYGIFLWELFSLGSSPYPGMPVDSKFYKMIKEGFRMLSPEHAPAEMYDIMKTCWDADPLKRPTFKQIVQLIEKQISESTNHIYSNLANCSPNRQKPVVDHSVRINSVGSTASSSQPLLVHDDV
Sequence of kinases (KINOMEscan panel) (Homo sapiens, UniProt Q96SB4) (Q96SB4 whole entry): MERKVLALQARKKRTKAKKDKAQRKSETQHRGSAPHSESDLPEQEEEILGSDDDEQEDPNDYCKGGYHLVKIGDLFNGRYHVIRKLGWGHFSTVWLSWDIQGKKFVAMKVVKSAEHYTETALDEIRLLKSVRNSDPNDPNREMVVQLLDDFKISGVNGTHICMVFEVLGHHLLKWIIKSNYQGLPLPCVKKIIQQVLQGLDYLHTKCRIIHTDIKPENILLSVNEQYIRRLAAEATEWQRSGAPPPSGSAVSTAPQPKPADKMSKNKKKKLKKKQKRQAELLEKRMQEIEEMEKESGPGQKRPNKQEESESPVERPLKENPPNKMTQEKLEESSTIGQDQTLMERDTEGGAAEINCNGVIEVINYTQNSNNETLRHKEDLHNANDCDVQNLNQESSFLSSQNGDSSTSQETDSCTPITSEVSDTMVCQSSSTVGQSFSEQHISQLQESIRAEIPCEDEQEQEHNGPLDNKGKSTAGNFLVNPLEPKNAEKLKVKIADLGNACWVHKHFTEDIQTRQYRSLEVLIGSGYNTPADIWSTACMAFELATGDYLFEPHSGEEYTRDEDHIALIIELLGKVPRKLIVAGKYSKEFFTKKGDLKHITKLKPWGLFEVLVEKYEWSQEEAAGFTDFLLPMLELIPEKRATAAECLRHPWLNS
Sequence of kinases (KINOMEscan panel) (Homo sapiens, UniProt P00533, T790M) (P00533 25-1210 T790M): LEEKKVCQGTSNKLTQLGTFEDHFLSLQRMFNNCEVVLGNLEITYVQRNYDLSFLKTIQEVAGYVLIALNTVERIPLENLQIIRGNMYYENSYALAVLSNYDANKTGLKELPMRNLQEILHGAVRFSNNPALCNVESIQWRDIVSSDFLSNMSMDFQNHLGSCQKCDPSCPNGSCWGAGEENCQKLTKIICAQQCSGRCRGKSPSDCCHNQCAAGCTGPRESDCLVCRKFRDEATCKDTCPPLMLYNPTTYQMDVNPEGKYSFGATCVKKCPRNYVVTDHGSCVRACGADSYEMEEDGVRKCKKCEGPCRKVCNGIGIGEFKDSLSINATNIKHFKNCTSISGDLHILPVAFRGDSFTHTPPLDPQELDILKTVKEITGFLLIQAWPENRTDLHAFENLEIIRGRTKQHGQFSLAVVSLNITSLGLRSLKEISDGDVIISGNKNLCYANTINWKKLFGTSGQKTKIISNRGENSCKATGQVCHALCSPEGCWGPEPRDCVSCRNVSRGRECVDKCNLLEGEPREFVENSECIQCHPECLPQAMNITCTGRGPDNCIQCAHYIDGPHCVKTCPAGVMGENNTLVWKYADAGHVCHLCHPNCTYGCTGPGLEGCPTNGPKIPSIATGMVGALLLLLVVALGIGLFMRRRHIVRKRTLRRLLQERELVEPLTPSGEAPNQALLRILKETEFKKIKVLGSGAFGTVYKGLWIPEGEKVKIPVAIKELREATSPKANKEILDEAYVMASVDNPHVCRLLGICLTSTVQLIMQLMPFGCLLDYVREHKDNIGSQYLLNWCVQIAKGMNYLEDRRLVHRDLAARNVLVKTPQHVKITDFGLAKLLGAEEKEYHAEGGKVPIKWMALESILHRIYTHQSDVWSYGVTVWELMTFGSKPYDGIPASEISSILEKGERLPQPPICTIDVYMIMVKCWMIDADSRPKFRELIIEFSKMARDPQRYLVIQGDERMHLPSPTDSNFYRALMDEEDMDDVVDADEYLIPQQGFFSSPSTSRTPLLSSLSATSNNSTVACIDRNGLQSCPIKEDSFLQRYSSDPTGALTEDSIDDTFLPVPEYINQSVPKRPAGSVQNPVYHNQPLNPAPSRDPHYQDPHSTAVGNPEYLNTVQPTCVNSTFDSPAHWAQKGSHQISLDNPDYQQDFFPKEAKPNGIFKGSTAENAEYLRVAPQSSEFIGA
Sequence of kinases (KINOMEscan panel) (Homo sapiens, UniProt Q9UM73) (Q9UM73 19-1620): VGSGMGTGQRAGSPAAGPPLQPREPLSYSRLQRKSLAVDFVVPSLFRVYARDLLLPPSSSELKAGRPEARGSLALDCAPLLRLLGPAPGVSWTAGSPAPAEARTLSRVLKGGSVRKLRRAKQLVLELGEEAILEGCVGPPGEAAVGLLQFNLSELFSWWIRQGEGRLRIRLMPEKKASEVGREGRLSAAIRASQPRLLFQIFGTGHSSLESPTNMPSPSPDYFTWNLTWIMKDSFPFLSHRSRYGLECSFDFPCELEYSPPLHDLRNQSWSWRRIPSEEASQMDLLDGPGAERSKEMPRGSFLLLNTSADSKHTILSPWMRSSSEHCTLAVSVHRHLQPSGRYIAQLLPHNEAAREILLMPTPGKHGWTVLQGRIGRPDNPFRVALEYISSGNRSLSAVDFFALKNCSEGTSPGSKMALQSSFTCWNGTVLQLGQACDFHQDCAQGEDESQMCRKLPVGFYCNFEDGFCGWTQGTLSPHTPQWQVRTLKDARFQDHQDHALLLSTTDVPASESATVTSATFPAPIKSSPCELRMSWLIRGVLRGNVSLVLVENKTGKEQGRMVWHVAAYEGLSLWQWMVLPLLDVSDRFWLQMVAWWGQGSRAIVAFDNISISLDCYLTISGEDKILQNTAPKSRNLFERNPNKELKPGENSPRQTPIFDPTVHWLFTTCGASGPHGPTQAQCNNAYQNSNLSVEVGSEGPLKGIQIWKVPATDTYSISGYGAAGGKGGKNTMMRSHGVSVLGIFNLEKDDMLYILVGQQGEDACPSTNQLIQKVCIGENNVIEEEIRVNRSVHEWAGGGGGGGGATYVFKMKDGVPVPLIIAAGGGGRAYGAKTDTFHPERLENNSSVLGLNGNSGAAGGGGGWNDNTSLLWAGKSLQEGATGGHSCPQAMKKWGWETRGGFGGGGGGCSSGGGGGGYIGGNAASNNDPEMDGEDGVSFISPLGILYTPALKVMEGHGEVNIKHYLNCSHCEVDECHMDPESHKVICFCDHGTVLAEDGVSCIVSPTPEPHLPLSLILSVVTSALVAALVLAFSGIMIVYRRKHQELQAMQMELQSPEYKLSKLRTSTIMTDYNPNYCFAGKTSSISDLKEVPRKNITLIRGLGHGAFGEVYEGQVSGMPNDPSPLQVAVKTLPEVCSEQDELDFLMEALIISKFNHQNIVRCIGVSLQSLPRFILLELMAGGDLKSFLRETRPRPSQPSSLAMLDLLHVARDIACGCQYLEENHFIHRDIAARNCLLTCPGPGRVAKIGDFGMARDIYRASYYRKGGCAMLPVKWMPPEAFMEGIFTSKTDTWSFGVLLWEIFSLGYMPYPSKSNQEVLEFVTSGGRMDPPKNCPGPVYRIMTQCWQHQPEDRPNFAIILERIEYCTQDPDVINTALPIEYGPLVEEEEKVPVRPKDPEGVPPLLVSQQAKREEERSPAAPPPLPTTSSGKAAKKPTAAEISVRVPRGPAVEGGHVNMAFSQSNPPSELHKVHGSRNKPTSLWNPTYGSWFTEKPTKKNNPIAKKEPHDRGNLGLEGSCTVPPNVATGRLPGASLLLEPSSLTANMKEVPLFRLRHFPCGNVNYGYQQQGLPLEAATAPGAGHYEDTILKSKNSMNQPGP

Row | Structure (SMILES) | KINOMEscan PLK4 [1] | KINOMEscan PIP5K1C [2] | KINOMEscan ABL1(M351T)-phosphorylated [3] | KINOMEscan EGFR(G719C) [4] | KINOMEscan EGFR(T790M) [5] | KINOMEscan KIT(D816V) [6] | KINOMEscan NEK4 [7] | KINOMEscan CDK18 [8] | KINOMEscan NEK7 [9] | KINOMEscan SRPK1 [10] | KINOMEscan PLK3 [11] | KINOMEscan ALK [12] | KINOMEscan SRPK3 [13] | KINOMEscan MAP4K5 [14]
1 | Cc1cccc(-c2nc(Nc3ccc4nn(C)cc4c3)c3ccccc3n2)n1 [NK167] | 0 | 18 | 0 | 0 | 0 | 0 | 0 | 0 | 0 | 2 | 16 | 22 | 0 | 0
2 | Cc1cccc(-c2nc(N(C)c3ccc4ncsc4c3)c3ccccc3n2)n1 [NK-161] | 3 | 1 | 0 | 0 | 0 | 7 | 5 | 0 | 0 | 7 | 13 | 9 | 1 | 0
